Source: patent publication US20260022142A1, “MACROCYCLIC IMMUNOMODULATORS” (Bristol-Myers Squibb Company, priority 2022, published 2026)
Bridge positions count the residues as written; N and C are the ends. Square brackets hold non-standard residues; d marks the D form. Peptide text beside a SMILES is read from it. * marks the point of attachment. ξ: configuration not given here. Phe(4-COOH) = N[C@@H](Cc1ccc(C(=O)O)cc1)C(=O)O; Bip = N[C@@H](Cc1ccc(-c2ccccc2)cc1)C(=O)O; Phe(4-CN) = N#Cc1ccc(C[C@H](N)C(=O)O)cc1; Phe(3-Me) = Cc1cccc(C[C@H](N)C(=O)O)c1; NH(CH2)12COOH = O=C(O)CCCCCCCCCCCCN*; Val(3-OH) = CC(C)(O)[C@H](N)C(=O)O; 4Pal = N[C@@H](Cc1ccncc1)C(=O)O; ξVal(3-OH) = CC(C)(O)C(N)C(=O)O; Cha = N[C@@H](CC1CCCCC1)C(=O)O; Carboxymethyl = O=C(O)C*; Orn = NCCC[C@H](N)C(=O)O; Aun = NCCCCCCCCCCC(=O)O; Dab = NCC[C@H](N)C(=O)O; Nva = CCC[C@H](N)C(=O)O; AEEA = NCCOCCOCC(=O)O

Biological target: T1, PD-1/PD-L1 interaction (PE-labeled human PD-L1-Ig binding to Jurkat cell line over-expressing human PD-1) (Homo sapiens, UniProt Q15116)
T1 construct: expressed in transfected cells; host or cells: Jurkat
T1 sequence (Q15116 25-288): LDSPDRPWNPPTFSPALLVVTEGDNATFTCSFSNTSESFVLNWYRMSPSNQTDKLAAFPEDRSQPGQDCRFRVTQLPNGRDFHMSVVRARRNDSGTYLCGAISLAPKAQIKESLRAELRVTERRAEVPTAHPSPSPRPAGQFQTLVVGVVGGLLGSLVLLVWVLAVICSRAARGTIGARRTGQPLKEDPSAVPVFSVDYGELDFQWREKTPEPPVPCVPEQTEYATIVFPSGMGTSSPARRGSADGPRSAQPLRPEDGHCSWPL
Assay: Jurkat-PD-1 Cell Binding High-Content Screening Assay (CBA)
Format: cell-based
Details: Jurkat cell line over-expressing human PD-1; PE-labeled PD-L1-Ig 20 nM final; read-out: Jurkat hPD1-PDL1 IC50
In short: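 Jurkat-hPD-1 cells, DMEM/10% FCS; cpd 2 h 37° C; PE-PD-L1-Ig 20 nM final, 1 h; 4% PFA fix + Hoechst 33342, 3× dPBS wash; high-content imaging read-out.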

SMILES	IC50 [nM]
Cc1cccc(C[C@@H]2NC(=O)[C@H](CC(=O)O)NC(=O)[C@H](Cc3ccc(C(=O)O)cc3)NC(=O)[C@H](Cc3ccc(C#N)cc3)NC(=O)CSC[C@@H](C(=O)N[C@@H](CCN)C(=O)NCCOCCOCC(=O)NCCCCCCCCCCC(=O)O)NC(=O)[C@H](CO)NC(=O)[C@H](C(C)(C)O)NC(=O)[C@H](CC3CCCCC3)NC(=O)[C@H](CCN)NC(=O)[C@@H](CC(C)C)NC(=O)[C@H](CCCN)NC(=O)[C@H](Cc3ccc(OCC(=O)O)cc3)NC(=O)[C@H](Cc3ccc(-c4ccccc4)cc3)NC(=O)[C@H](Cc3ccc(OCC(=O)O)cc3)NC2=O)c1 [Compound 2242] ({CH2CO}-[Phe(4-CN)][Phe(4-COOH)]D[Phe(3-Me)]Y(Carboxymethyl)[Bip]Y(Carboxymethyl)[Orn][dL][Dab][Cha][Val(3-OH)]SC[Dab][AEEA][Aun]-OH; thioether N-14)	4
Cc1cccc(C[C@@H]2NC(=O)[C@H](CC(=O)O)NC(=O)[C@H](Cc3ccc(OCC(=O)O)cc3)NC(=O)[C@H]([C@@H](C)O)NC(=O)CSC[C@@H](C(=O)N[C@@H](CCN)C(=O)NCCOCCOCC(=O)NCCCCCCCCCCC(=O)O)NC(=O)[C@H](CO)NC(=O)[C@H](C(C)(C)O)NC(=O)[C@H](CC3CCCCC3)NC(=O)[C@H](CCN)NC(=O)[C@@H](CC(C)C)NC(=O)[C@H](CCCN)NC(=O)[C@H](Cc3ccc(OCC(=O)O)cc3)NC(=O)[C@H](Cc3ccc(-c4ccccc4)cc3)NC(=O)[C@H](Cc3ccc(OCC(=O)O)cc3)NC2=O)c1 [Compound 2243] ({CH2CO}-TY(Carboxymethyl)D[Phe(3-Me)]Y(Carboxymethyl)[Bip]Y(Carboxymethyl)[Orn][dL][Dab][Cha][Val(3-OH)]SC[Dab][AEEA][Aun]-OH; thioether N-14)	1.7
Cc1cccc(C[C@@H]2NC(=O)[C@H](CC(=O)O)NC(=O)[C@H](Cc3ccc(OCC(=O)O)cc3)NC(=O)[C@H](CCCNC(=N)N)NC(=O)CSC[C@@H](C(=O)N[C@@H](CCN)C(=O)NCCOCCOCC(=O)NCCCCCCCCCCC(=O)O)NC(=O)[C@H](CO)NC(=O)[C@H](C(C)(C)O)NC(=O)[C@H](CC3CCCCC3)NC(=O)[C@H](CCN)NC(=O)[C@@H](CC(C)C)NC(=O)[C@H](CCCN)NC(=O)[C@H](Cc3ccc(OCC(=O)O)cc3)NC(=O)[C@H](Cc3ccc(-c4ccccc4)cc3)NC(=O)[C@H](Cc3ccc(OCC(=O)O)cc3)NC2=O)c1 [Compound 2244] ({CH2CO}-RY(Carboxymethyl)D[Phe(3-Me)]Y(Carboxymethyl)[Bip]Y(Carboxymethyl)[Orn][dL][Dab][Cha][Val(3-OH)]SC[Dab][AEEA][Aun]-OH; thioether N-14)	0.6
Cc1cccc(C[C@@H]2NC(=O)[C@H](CC(=O)O)NC(=O)[C@H](Cc3ccc(O)cc3)NC(=O)[C@H]([C@@H](C)O)NC(=O)CSC[C@@H](C(=O)N[C@@H](CCN)C(=O)NCCOCCOCC(=O)NCCCCCCCCCCC(=O)O)NC(=O)[C@H](CO)NC(=O)[C@H](C(C)(C)O)NC(=O)[C@H](CC3CCCCC3)NC(=O)[C@H](CCN)NC(=O)[C@@H](CC(C)C)NC(=O)[C@H](CCCN)NC(=O)[C@H](Cc3ccc(OCC(=O)O)cc3)NC(=O)[C@H](Cc3ccc(-c4ccccc4)cc3)NC(=O)[C@H](Cc3ccc(OCC(=O)O)cc3)NC2=O)c1 [Compound 2245] ({CH2CO}-TYD[Phe(3-Me)]Y(Carboxymethyl)[Bip]Y(Carboxymethyl)[Orn][dL][Dab][Cha][Val(3-OH)]SC[Dab][AEEA][Aun]-OH; thioether N-14)	1.2
CCC[C@@H]1NC(=O)CSC[C@@H](C(=O)N[C@@H](CCN)C(=O)NCCOCCOCC(=O)NCCCCCCCCCCC(=O)O)NC(=O)[C@H](CO)NC(=O)[C@H](C(C)(C)O)NC(=O)[C@H](CC2CCCCC2)NC(=O)[C@H](CCN)NC(=O)[C@@H](CC(C)C)NC(=O)[C@H](CCCN)NC(=O)[C@H](Cc2ccc(OCC(=O)O)cc2)NC(=O)[C@H](Cc2ccc(-c3ccccc3)cc2)NC(=O)[C@H](Cc2ccc(OCC(=O)O)cc2)NC(=O)[C@H](Cc2cccc(C)c2)NC(=O)[C@H](CC(=O)O)NC(=O)[C@H](Cc2ccc(OCC(=O)O)cc2)NC1=O [Compound 2246] ({CH2CO}-[Nva]Y(Carboxymethyl)D[Phe(3-Me)]Y(Carboxymethyl)[Bip]Y(Carboxymethyl)[Orn][dL][Dab][Cha][Val(3-OH)]SC[Dab][AEEA][Aun]-OH; thioether N-14)	0.6
CCC[C@@H]1NC(=O)CSC[C@@H](C(=O)N[C@@H](CCN)C(=O)NCCOCCOCC(=O)NCCCCCCCCCCC(=O)O)NC(=O)[C@H](CO)NC(=O)[C@H](C(C)(C)O)NC(=O)[C@H](CC2CCCCC2)NC(=O)[C@H](CCN)NC(=O)[C@@H](CC(C)C)NC(=O)[C@H](CCCN)NC(=O)[C@H](Cc2ccc(OCC(=O)O)cc2)NC(=O)[C@H](Cc2ccc(-c3ccccc3)cc2)NC(=O)[C@H](Cc2ccc(OCC(=O)O)cc2)NC(=O)[C@H](Cc2cccc(C)c2)NC(=O)[C@H](CC(=O)O)NC(=O)[C@H](Cc2ccc(C(=O)O)cc2)NC1=O [Compound 2247] ({CH2CO}-[Nva][Phe(4-COOH)]D[Phe(3-Me)]Y(Carboxymethyl)[Bip]Y(Carboxymethyl)[Orn][dL][Dab][Cha][Val(3-OH)]SC[Dab][AEEA][Aun]-OH; thioether N-14)	1.3
Cc1cccc(C[C@@H]2NC(=O)[C@H](CC(=O)O)NC(=O)[C@H](Cc3ccc(O)cc3)NC(=O)[C@H](CCCNC(=N)N)NC(=O)CSC[C@@H](C(=O)N[C@@H](CCN)C(=O)NCCOCCOCC(=O)NCCCCCCCCCCC(=O)O)NC(=O)[C@H](CO)NC(=O)[C@H](C(C)(C)O)NC(=O)[C@H](CC3CCCCC3)NC(=O)[C@H](CCN)NC(=O)[C@@H](CC(C)C)NC(=O)[C@H](CCCN)NC(=O)[C@H](Cc3ccc(OCC(=O)O)cc3)NC(=O)[C@H](Cc3ccc(-c4ccccc4)cc3)NC(=O)[C@H](Cc3ccc(OCC(=O)O)cc3)NC2=O)c1 [Compound 2248] ({CH2CO}-RYD[Phe(3-Me)]Y(Carboxymethyl)[Bip]Y(Carboxymethyl)[Orn][dL][Dab][Cha][Val(3-OH)]SC[Dab][AEEA][Aun]-OH; thioether N-14)	5.1
Cc1cccc(C[C@@H]2NC(=O)[C@H](CC(=O)O)NC(=O)[C@H](Cc3ccc(OCC(=O)O)cc3)NC(=O)[C@H]([C@@H](C)O)NC(=O)CSC[C@@H](C(=O)N[C@@H](CCN)C(=O)NCCOCCOCC(=O)NCCCCCCCCCCCCC(=O)O)NC(=O)[C@H](CO)NC(=O)[C@H](C(C)(C)O)NC(=O)[C@H](CC3CCCCC3)NC(=O)[C@H](CCN)NC(=O)[C@@H](CC(C)C)NC(=O)[C@H](CCCN)NC(=O)[C@H](Cc3ccc(OCC(=O)O)cc3)NC(=O)[C@H](Cc3ccc(-c4ccccc4)cc3)NC(=O)[C@H](Cc3ccc(OCC(=O)O)cc3)NC2=O)c1 [Compound 2249] ({CH2CO}-TY(Carboxymethyl)D[Phe(3-Me)]Y(Carboxymethyl)[Bip]Y(Carboxymethyl)[Orn][dL][Dab][Cha][Val(3-OH)]SC[Dab][AEEA]-{NH(CH2)12COOH}; thioether N-14)	16
Cc1cccc(C[C@@H]2NC(=O)[C@H](CC(=O)O)NC(=O)[C@H](Cc3ccc(O)cc3)NC(=O)[C@H]([C@@H](C)O)NC(=O)CSC[C@@H](C(=O)N[C@@H](CCN)C(=O)NCCOCCOCC(=O)NCCCCCCCCCCCCC(=O)O)NC(=O)[C@H](CO)NC(=O)[C@H](C(C)(C)O)NC(=O)[C@H](CC3CCCCC3)NC(=O)[C@H](CCN)NC(=O)[C@@H](CC(C)C)NC(=O)[C@H](CCCN)NC(=O)[C@H](Cc3ccc(OCC(=O)O)cc3)NC(=O)[C@H](Cc3ccc(-c4ccccc4)cc3)NC(=O)[C@H](Cc3ccc(OCC(=O)O)cc3)NC2=O)c1 [Compound 2250] ({CH2CO}-TYD[Phe(3-Me)]Y(Carboxymethyl)[Bip]Y(Carboxymethyl)[Orn][dL][Dab][Cha][Val(3-OH)]SC[Dab][AEEA]-{NH(CH2)12COOH}; thioether N-14)	18
Cc1cccc(C[C@@H]2NC(=O)[C@H](CC(=O)O)NC(=O)[C@H](Cc3ccc(OCC(=O)O)cc3)NC(=O)[C@H](Cc3ccncc3)NC(=O)CSC[C@@H](C(=O)N[C@@H](CCN)C(=O)NCCOCCOCC(=O)NCCCCCCCCCCCCC(=O)O)NC(=O)[C@H](CO)NC(=O)[C@H](C(C)(C)O)NC(=O)[C@H](CC3CCCCC3)NC(=O)[C@H](CCN)NC(=O)[C@@H](CC(C)C)NC(=O)[C@H](CCCN)NC(=O)[C@H](Cc3ccc(OCC(=O)O)cc3)NC(=O)[C@H](Cc3ccc(-c4ccccc4)cc3)NC(=O)[C@H](Cc3ccc(OCC(=O)O)cc3)NC2=O)c1 [Compound 2251] ({CH2CO}-[4Pal]Y(Carboxymethyl)D[Phe(3-Me)]Y(Carboxymethyl)[Bip]Y(Carboxymethyl)[Orn][dL][Dab][Cha][Val(3-OH)]SC[Dab][AEEA]-{NH(CH2)12COOH}; thioether N-14)	10.5
CCC[C@@H]1NC(=O)CSC[C@@H](C(=O)N[C@@H](CCN)C(=O)NCCOCCOCC(=O)NCCCCCCCCCCCCC(=O)O)NC(=O)[C@H](CO)NC(=O)C(C(C)(C)O)NC(=O)[C@H](CC2CCCCC2)NC(=O)[C@H](CCN)NC(=O)[C@@H](CC(C)C)NC(=O)[C@H](CCCN)NC(=O)[C@H](Cc2ccc(OCC(=O)O)cc2)NC(=O)[C@H](Cc2ccc(-c3ccccc3)cc2)NC(=O)[C@H](Cc2ccc(OCC(=O)O)cc2)NC(=O)[C@H](Cc2cccc(C)c2)NC(=O)[C@H](CC(=O)O)NC(=O)[C@H](Cc2ccc(OCC(=O)O)cc2)NC1=O (stereo partly drawn) [Compound 2252] ({CH2CO}-[Nva]Y(Carboxymethyl)D[Phe(3-Me)]Y(Carboxymethyl)[Bip]Y(Carboxymethyl)[Orn][dL][Dab][Cha][ξVal(3-OH)]SC[Dab][AEEA]-{NH(CH2)12COOH}; thioether N-14)	13.5
